# From ChEMBL document CHEMBL1145665, “Tunicamycins, streptovirudins, and corynetoxins, a special subclass of nucleoside antibiotics” (J Nat Prod, 1983)
# Species: Sus scrofa
# Assay: Inhibition of pig aortic GlcNAc-1P-transferase-mediated […] formation at 50 to 100 ug/ml
row,SMILES,inhibition [%]
1,CCC(C)CCCCCCCC/C=C/C(=O)N[C@H]1[C@H](O[C@H]2O[C@H](CO)[C@@H](O)[C@H](O)[C@H]2NC(C)=O)O[C@H](C[C@H](O)[C@H]2O[C@@H](N3CCC(=O)NC3=O)[C@H](O)[C@@H]2O)[C@H](O)[C@@H]1O (stereo not given in full),50
2,CCC(C)CCCCCC/C=C/C(=O)N[C@H]1[C@H](O[C@H]2O[C@H](CO)[C@@H](O)[C@H](O)[C@H]2NC(C)=O)O[C@H](C[C@H](O)[C@H]2O[C@@H](N3CCC(=O)NC3=O)[C@H](O)[C@@H]2O)[C@H](O)[C@@H]1O (stereo not given in full),50

# Continued, values first:
row,inhibition [%],SMILES
1,50,CC(=O)N[C@H]1[C@@H](O[C@@H]2O[C@H](C[C@H](O)[C@H]3O[C@@H](N4CCC(=O)NC4=O)[C@H](O)[C@@H]3O)[C@H](O)[C@H](O)[C@H]2NC(=O)/C=C/CCCCCCCCC(C)C)O[C@H](CO)[C@@H](O)[C@@H]1O
2,50,CC(=O)N[C@H]1[C@@H](O[C@@H]2O[C@H](C[C@H](O)[C@H]3O[C@@H](N4CCC(=O)NC4=O)[C@H](O)[C@@H]3O)[C@H](O)[C@H](O)[C@H]2NC(=O)/C=C/CCCCCCCC(C)C)O[C@H](CO)[C@@H](O)[C@@H]1O
3,50,CC(=O)N[C@H]1[C@@H](O[C@@H]2O[C@H](C[C@H](O)[C@H]3O[C@@H](N4CCC(=O)NC4=O)[C@H](O)[C@@H]3O)[C@H](O)[C@H](O)[C@H]2NC(=O)/C=C/CCCCCCC(C)C)O[C@H](CO)[C@@H](O)[C@@H]1O

# Species: Sus scrofa
# Assay: Inhibition of pig aortic GlcNAc-1P-transferase-mediated […] formation at 0.5 to 1.5 ug/ml
row,inhibition [%],SMILES
1,50,CCC(C)CCCCCCCC/C=C/C(=O)N[C@H]1[C@H](O[C@H]2O[C@H](CO)[C@@H](O)[C@H](O)[C@H]2NC(C)=O)O[C@H](C[C@H](O)[C@H]2O[C@@H](n3ccc(=O)[nH]c3=O)[C@H](O)[C@@H]2O)[C@H](O)[C@@H]1O (stereo not given in full)
2,50,CC(=O)N[C@H]1[C@@H](O[C@@H]2O[C@H](C[C@H](O)[C@H]3O[C@@H](n4ccc(=O)[nH]c4=O)[C@H](O)[C@@H]3O)[C@H](O)[C@H](O)[C@H]2NC(=O)/C=C/CCCCCCCC(C)C)O[C@H](CO)[C@@H](O)[C@@H]1O
3,50,CC(=O)N[C@H]1[C@@H](O[C@@H]2O[C@H](C[C@H](O)[C@H]3O[C@@H](n4ccc(=O)[nH]c4=O)[C@H](O)[C@@H]3O)[C@H](O)[C@H](O)[C@H]2NC(=O)/C=C/CCCCCCC(C)C)O[C@H](CO)[C@@H](O)[C@@H]1O
4,50,CCC(C)CCCCCC/C=C/C(=O)N[C@H]1[C@H](O[C@H]2O[C@H](CO)[C@@H](O)[C@H](O)[C@H]2NC(C)=O)O[C@H](C[C@H](O)[C@H]2O[C@@H](n3ccc(=O)[nH]c3=O)[C@H](O)[C@@H]2O)[C@H](O)[C@@H]1O (stereo not given in full)

row,SMILES,inhibition [%]
1,CC(=O)N[C@H]1[C@@H](O[C@@H]2O[C@H](C[C@H](O)[C@H]3O[C@@H](n4ccc(=O)[nH]c4=O)[C@H](O)[C@@H]3O)[C@H](O)[C@H](O)[C@H]2NC(=O)/C=C/CCCCCCCCC(C)C)O[C@H](CO)[C@@H](O)[C@@H]1O,50
